Entries after “also recorded” stand apart in the source; their conditions may differ. Read-outs that look alike come from different tables or passages of the source.
What was measured:
[1] = molecular target: neuronal GABA transporter (Mus musculus, UniProt P31648); conditions: Ludwig et al 1999; cited from earlier work
brain GABA levels = conditions: human, single dose; cited from earlier work
[2] = system: patient diagnosed with Tourettes's Disorder (TD); experiment: Clinical observations: single patient with Tourette's Disorder treated with vigabatrin; format: in vivo, human
Description: The following instruments will be used to assess diagnosis and symptom severity at baseline: • a) SCID-CT. A clinician administered, semi-structured diagnostic interview specifically developed for use in clinical trials with adults • b) Yale Global Tic Severity Scale (Y-GTSS) (Leckman et al, 1989). The primary outcome measure for tic assessment is this investigator administered Global Severity score (sum of Total Tic score and TD Impairment score) on the Y-GTSS. It includes measures of tic frequency and severity and is widely used in drug efficacy trials involving TD. • c) Yale-Brown Obsessive Compulsive Scale (Y-BOCS) (Goodman et al, 1989). The Y-BOCS is a primary outcome measure of OCD symptoms and is rated by a study investigator. • d) Clinical Global Impression for Tics (Tics-CGI) (Leckman et al, 1988), for ADHD (ADHD-CGI), and for OCD (OCD-CGI) (Guy et al, 1976). Rated by the investigator. Global Improvement (1=very much improved, to 7=very much worse) scales. At intake, only the severity can be rated. In subsequent assessments, both severity and improvement will be rated. A CGI improvement of 1 (very much) or 2 (much) improved is considered to be an acceptable response to acute treatment as is a clinical severity rating of ≦3. • e) DSM-IV-TR Global Assessment of Functioning Scale (GAF) (APA DSM-IV-TR, 2000). The investigator-rated GAF ranges from 1-100, with scores over 70 indicating normal adjustment, and below 60, clinically significant impairment. • f) Hamilton Depression Scale. A clinician-rated scale used as a screening and diagnostic tool and a measure of severity of […] in adults, which has been widely used in clinical trials of young adults with MDD. • g) Hamilton Anxiety Scale. A clinician-rated scale used as a screening and diagnostic tool and a measure of severity of […] in adults, which has been widely used in clinical trials of young adults with MDD. • h) Conners Adult ADHD Rating Scale (CAARS:SL) Systematic self-report of ADHD symptoms in adults. • i) Adverse Events Form (SMURF) is completed at every visit to document all adverse events that occur during the study. • j) Demographics: Demographics and family history information are collected systematically during the Screening/Baseline Phase. • k) Vital signs, Weight and Height (pulse, blood pressure, weight, and height) will be assessed at every visit. • l) Abnormal Involuntary Movement Scale (AIMS) An investigator rated scale of abnormal involuntary movements including tardive dyskinesia. • m) Opthalmological evaluation including visual fields testing Visit 2 (Treatment Week 0):
A single patient diagnosed with Tourettes's Disorder (TD) was treated with vigabatrin for a period of about ten months. Subject is a person with a longstanding history of severe TD. Their course was characterized by typical attenuation of symptoms in late adolescence/early adulthood with an unusual, but not rare, acceleration of symptoms to lifetime peak severity in the last several years. This exacerbation occurred in temporal association with several significant life stressors. Marking the severity of their TD course was a history of fractured rib secondary to a truncal tic, inability to take public transportation, and inability to find steady work in their profession. […] They were on tetrabenazine at the time of referral to the study, but their response to this medication was limited by depressed mood symptoms and moderate fatigue.
Baseline Yale Global Tic Severity Score (YGTSS) score indicated a total motor score of 22, and a total vocal score of 17, for a total tic score (TTS) of 39 and a tic-related impairment score of 40; global severity was 79. Global Assessment of Functioning (GAF) score at baseline was 50.

[3] = molecular target: γ-aminobutyric acid aminotransferase (GABA-AT) (Sus scrofa, UniProt P80147); conditions: cited from earlier work
Sequence of γ-aminobutyric acid aminotransferase (GABA-AT) (P80147 29-500): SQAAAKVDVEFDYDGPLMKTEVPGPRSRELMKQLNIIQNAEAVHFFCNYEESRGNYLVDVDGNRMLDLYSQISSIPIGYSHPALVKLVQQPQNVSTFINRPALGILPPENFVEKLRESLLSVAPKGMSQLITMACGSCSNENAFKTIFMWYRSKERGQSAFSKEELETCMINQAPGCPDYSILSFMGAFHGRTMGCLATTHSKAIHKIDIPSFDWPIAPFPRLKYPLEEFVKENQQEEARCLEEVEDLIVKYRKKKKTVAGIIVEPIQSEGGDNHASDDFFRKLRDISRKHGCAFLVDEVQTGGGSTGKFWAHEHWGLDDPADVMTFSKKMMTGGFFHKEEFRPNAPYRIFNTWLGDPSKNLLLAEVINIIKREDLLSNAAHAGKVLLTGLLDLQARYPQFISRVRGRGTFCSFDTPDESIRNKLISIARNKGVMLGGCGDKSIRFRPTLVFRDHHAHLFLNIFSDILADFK

In the case of `C=CC(N)CCC(=O)O` (stereo not drawn) [vigabatrin, γ-vinyl GABA], the “inhibition of GABA uptake” value [1] is listed as “inhibits GABA uptake”, the “brain GABA levels after administration” value (brain GABA levels) is listed as “remain substantially elevated for several days” and the “tic severity, overall clinical outcome” value [2] is listed as “clinically significant and meaningful improvement in their tic severity”. For the same compound, the “YGTSS total tic score (TTS)” value ([2]; GVG 2 grams, week 2, baseline TTS 39) was 31, the “YGTSS total tic score (TTS)” value ([2]; GVG 3 grams, week 3, baseline TTS 39) was 27 and the “YGTSS total tic score (TTS)” value ([2]; GVG 3 grams, week 4, baseline TTS 39) was 24. For the same compound, the “YGTSS total tic score (TTS)” value ([2]; GVG 3 grams, week 5, baseline TTS 39) was 21, the “YGTSS total tic score (TTS)” value ([2]; GVG 3 grams, week 7, baseline TTS 39) was 24 and the “adverse effect” value ([2]; GVG up to 3 grams, listed as GVG) was “minimal: tiredness and fatigue starting at 2 grams, which gradually attenuated; also recorded: mild and non-limiting adverse effect of fatigue”. The “eye exam” value ([2]; at 7 weeks, overall, listed as GVG) was “normal, and showed no change from baseline; also recorded: unchanged and within normal limits”, the “YGTSS total tic score (TTS)” value ([2]; week 1, dose figure not printed ('gram'), baseline TTS 39) was 29 and the “Global Assessment of Functioning (GAF) score” value ([2]; week 7, baseline GAF 50) was 65.
In the case of `N[C@@H]1C=C[C@H](C(=O)O)C1` [compound 1, (1R,4S)-4-amino-cyclopent-2-ene-1-carboxylic acid], the “specificity constant as GABA-AT substrate relative to GABA” value [3] is given as “almost five times greater than that of GABA”.
For `C=C1C[C@H](C(=O)O)C[C@@H]1N` [Compound 2, (1S,3S)-3-amino-4-methylenyl-1-cyclopentanoic acid], the “GABA-AT inactivation” value ([3]; 2-mercaptoethanol added to the incubation mixture) is given as “no inactivation occurred” and the “GABA-AT inactivation” value ([3]; without 2-mercaptoethanol) is given as “inactivation of GABA-AT was observed”.

Reference: patent US9254274B2, “Method of treating Tourette'S disorder with GABA-aminotransferase inactivators” (CATALYST PHARMACEUTICAL PARTNERS, priority 2012, dated 2016)
